Experimental data: patent publication US20020037328A1, “Hexitol compositions and uses thereof” (priority 2000, published 2002)

System: murine fibrosarcomas (RIF-1 cells)
Experiment: Tumor growth delay (tumor volume quadrupling time) of RIF-1 fibrosarcomas in C3H mice
Type: in vivo
Conditions: Dianhydrogalactitol 10 mg/kg, Cisplatin 4 mg/kg; for Delay (median TVQT of treated group minus control group) / TVQT/CTVQT (ratio of TVQT of treated tumor over untreated control) / Median (TVQT): RIF-1 tumors in C3H mice, i.p., combination 10 → 4 mg/kg (30 min apart); for TVQT/CTVQT (ratio of TVQT of treated tumor over untreated control): control 1.0; for Median (TVQT): control 6.3; for Mean TVQT ± S.E. (tumor volume quadrupling time): RIF-1 tumors intradermal in female C3H mice, single i.p. injection, combination 10 → 4 mg/kg (cisplatin 30 min after dianhydrogalactitol), 4 mice per group, untreated control 6.3 ± 0.3
Method: Transplantable experimental murine fibrosarcomas (2×10^5 RIF-1 cells) were grown intradermally in the flanks of 3 month old female C3H mice (Charles River, Hollister, Calif.). When the tumors reached a volume of approximately 100 mm^3, the mice were randomly assigned to each experimental group (4 mice per group).
The experimental compositions were prepared as described in Table 1.
Dianhydrogalactitol was obtained from NCI and was made to the appropriate concentration in DMSO. Cisplatin (David Bull Laboratories- Mulgrave, Australia, lot. 5201844x) was made to the appropriate concentration in water for injection. The compositions were injected systemically (i.e., intraperitoneally, i.p.), in a volume of 100 microliters. For the treatment of group 3, dianhydrogalactitol, was injected 30 minutes prior to the injection of cisplatin. After treatment, the growth of the tumors was monitored three times per week by caliper measurements of three perpendicular diameters of the tumor and calculation of tumor volume from the formula: […]
where D1-3 are the diameters in mm of the three perpendicular axes.
The tumors were followed until they reached a size of four times their day zero treatment volume (TVQT), or up to 30 days after treatment, whichever came first. The data is expressed as the “tumor volume quadrupling time” (TVQT) mean and as the “delay.” Mean TVQT is the mean days required for individual tumors to grow to four times the tumor volume at the initial treatment day. The “delay” is the median of days required for a tumor to grow to four times the mean size of the treated group, minus the median of days required to grow to four times the mean size of the control group. The data is also expressed as the ratio of the tumor volume quadrupling time of the treated tumor over the untreated control group (TVQT/CTVQT). Increasing values of this ratio indicate increased antitumor response.

Structure (SMILES)	Delay (median TVQT of treated group minus control group) [days]	TVQT/CTVQT (ratio of TVQT of treated tumor over untreated control)	Median (TVQT) [days]	Mean TVQT ± S.E. (tumor volume quadrupling time) [days]
N.N.[Cl][Pt][Cl] [Cisplatin, cis-diamminedichloroplatinum II]	1.45	1.2	7.7	7.4 ± 0.3
OC(C1CO1)C(O)C1CO1 (centres unmarked) [Dianhydrogalactitol, 1,2:5,6-Dianhydrogalactitol]	5.12	1.7	11.4	10.9 ± 0.8
